Experimental findings from ChEMBL document CHEMBL1159239, “Patellamide F, A new cytotoxic cyclic peptide from the colonial ascidian Lissoclinum patella” (1995) are described below.

The test in a line: Cytotoxicity against human NCI60 cells. The note with it: read-out: LC50 (the source's name). It is filed as functional.
With `CC[C@H](C)[C@@H]1NC(=O)c2csc(n2)[C@@H](C)NC(=O)[C@H]2N=C(O[C@@H]2C)[C@H](CC(C)C)NC(=O)c2csc(n2)[C@@H](Cc2ccccc2)NC(=O)[C@H]2N=C1O[C@@H]2C` [PATELLAMIDE B], the CC50 is 13 µM.
The same measure for `CC(C)[C@@H]1NC(=O)c2csc(n2)[C@@H](C(C)C)NC(=O)[C@H]2N=C(O[C@@H]2C)[C@H](C(C)C)NC(=O)c2csc(n2)[C@@H](Cc2ccccc2)NC(=O)[C@@H]2COC1=N2` [PATELLAMIDE F]: 48 µM; for `CC(C)C[C@H]1NC(=O)[C@H]2N=C(O[C@@H]2C)[C@H]2CSSC[C@@H](NC(=O)c3csc1n3)C1=N[C@H](C(=O)N[C@H](CC(C)C)c3nc(cs3)C(=O)N2)[C@@H](C)O1` [ULITHIACYCLAMIDE]: 3 µM.
